Numbers after ± are expanded uncertainties.
Assay: molar heat capacity at constant pressure
Details: 101.33 kPa, Small sample (50 mg) DSC

O=[Si]=O [silicon dioxide]
Details | molar heat capacity at constant pressure [J/K/mol]
809.47 K, Crystal 2 | 72.53 ± 1.3
809.64 K, Crystal 2 | 72.6 ± 1.2
809.8 K, Crystal 2 | 72.59 ± 1.2
809.97 K, Crystal 2 | 72.54 ± 1.1
855 K, Crystal 1 | 69.38 ± 1.3
855.17 K, Crystal 1 | 69.28 ± 1.2
855.33 K, Crystal 1 | 69.26 ± 1.2
855.5 K, Crystal 1 | 69.13 ± 1.1
855.67 K, Crystal 1 | 69.16 ± 1.2
855.83 K, Crystal 1 | 69.22 ± 1.2
856 K, Crystal 1 | 69.21 ± 1.2
856.16 K, Crystal 1 | 69.11 ± 1.2
856.33 K, Crystal 1 | 69.06 ± 1.2
856.5 K, Crystal 1 | 68.99 ± 1.1
856.66 K, Crystal 1 | 68.93 ± 1.1
856.83 K, Crystal 1 | 68.69 ± 1.1
857 K, Crystal 1 | 68.5 ± 1.1
857.17 K, Crystal 1 | 68.55 ± 1.2
857.34 K, Crystal 1 | 68.66 ± 1.2
857.51 K, Crystal 1 | 68.7 ± 1.1
857.68 K, Crystal 1 | 68.71 ± 1.2
857.84 K, Crystal 1 | 68.75 ± 1.2
858.01 K, Crystal 1 | 68.66 ± 1.2
858.17 K, Crystal 1 | 68.56 ± 1.2
858.34 K, Crystal 1 | 68.6 ± 1.1
858.51 K, Crystal 1 | 68.58 ± 1.1
858.68 K, Crystal 1 | 68.63 ± 1.1
858.84 K, Crystal 1 | 68.51 ± 1.1
859.01 K, Crystal 1 | 68.34 ± 1.1
859.18 K, Crystal 1 | 68.29 ± 1.1
859.34 K, Crystal 1 | 68.29 ± 1.1
859.51 K, Crystal 1 | 68.3 ± 1.1
859.68 K, Crystal 1 | 68.35 ± 1.1
859.84 K, Crystal 1 | 68.21 ± 1.1
860.01 K, Crystal 1 | 68.03 ± 1.1
860.18 K, Crystal 1 | 68.14 ± 1.1
860.34 K, Crystal 1 | 68.2 ± 1.1
860.51 K, Crystal 1 | 68.18 ± 1.1
860.67 K, Crystal 1 | 68.22 ± 1.1
860.84 K, Crystal 1 | 68.32 ± 1.1
861.01 K, Crystal 1 | 68.41 ± 1.1
861.17 K, Crystal 1 | 68.37 ± 1.1
861.34 K, Crystal 1 | 68.49 ± 1.1
861.51 K, Crystal 1 | 68.55 ± 1.1
861.67 K, Crystal 1 | 68.37 ± 1.1
861.84 K, Crystal 1 | 68.37 ± 1.1
862.01 K, Crystal 1 | 68.4 ± 1.1
862.18 K, Crystal 1 | 68.4 ± 1.1
862.34 K, Crystal 1 | 68.53 ± 1.1
862.51 K, Crystal 1 | 68.5 ± 1.1
862.68 K, Crystal 1 | 68.45 ± 1.1
862.84 K, Crystal 1 | 68.5 ± 1.1
863.01 K, Crystal 1 | 68.42 ± 1.1
863.18 K, Crystal 1 | 68.35 ± 1.1
863.35 K, Crystal 1 | 68.3 ± 1.1
863.51 K, Crystal 1 | 68.21 ± 1.1
863.68 K, Crystal 1 | 68.19 ± 1.1
863.85 K, Crystal 1 | 68.28 ± 1.1
864.01 K, Crystal 1 | 68.44 ± 1.1
864.18 K, Crystal 1 | 68.48 ± 1.1
864.34 K, Crystal 1 | 68.4 ± 1.1
864.51 K, Crystal 1 | 68.29 ± 1.1
864.68 K, Crystal 1 | 68.37 ± 1.1
864.84 K, Crystal 1 | 68.59 ± 1.1
865.01 K, Crystal 1 | 68.52 ± 1.1
865.18 K, Crystal 1 | 68.35 ± 1.1
865.34 K, Crystal 1 | 68.39 ± 1.1
865.5 K, Crystal 1 | 68.4 ± 1.1
865.67 K, Crystal 1 | 68.46 ± 1.1
865.84 K, Crystal 1 | 68.59 ± 1.1
866.01 K, Crystal 1 | 68.64 ± 1.1
866.18 K, Crystal 1 | 68.69 ± 1.1
866.35 K, Crystal 1 | 68.59 ± 1.1
866.51 K, Crystal 1 | 68.39 ± 1.1
866.67 K, Crystal 1 | 68.35 ± 1.1
866.84 K, Crystal 1 | 68.26 ± 1.1
867.01 K, Crystal 1 | 68.21 ± 1.1
867.17 K, Crystal 1 | 68.25 ± 1.1
867.34 K, Crystal 1 | 68.38 ± 1.1
867.51 K, Crystal 1 | 68.37 ± 1.1
867.67 K, Crystal 1 | 68.45 ± 1.1
867.84 K, Crystal 1 | 68.49 ± 1.1
868.01 K, Crystal 1 | 68.4 ± 1.1
868.18 K, Crystal 1 | 68.35 ± 1.1
868.34 K, Crystal 1 | 68.32 ± 1.1
868.51 K, Crystal 1 | 68.4 ± 1.1
868.68 K, Crystal 1 | 68.45 ± 1.1
868.85 K, Crystal 1 | 68.49 ± 1.1
869.01 K, Crystal 1 | 68.43 ± 1.1

From the NIST ThermoML archive (doi:10.1016/j.jct.2018.01.019)
